Experimental data reported in paper PMC9516332 (Frontiers in Oncology, 2022).
Read-outs that look alike come from different tables or passages of the source.

Legend:
Experiment in all cases: Kinase panel profiling at 1 µmol/L (MSA or IMAP), percentage inhibition
Format in all cases: biochemical
[1] = target: T1, panel of 255 wild-type kinases (Homo sapiens, UniProt O14965); conditions: 1 µmol/L single concentration
T1 sequence (O14965 1-403): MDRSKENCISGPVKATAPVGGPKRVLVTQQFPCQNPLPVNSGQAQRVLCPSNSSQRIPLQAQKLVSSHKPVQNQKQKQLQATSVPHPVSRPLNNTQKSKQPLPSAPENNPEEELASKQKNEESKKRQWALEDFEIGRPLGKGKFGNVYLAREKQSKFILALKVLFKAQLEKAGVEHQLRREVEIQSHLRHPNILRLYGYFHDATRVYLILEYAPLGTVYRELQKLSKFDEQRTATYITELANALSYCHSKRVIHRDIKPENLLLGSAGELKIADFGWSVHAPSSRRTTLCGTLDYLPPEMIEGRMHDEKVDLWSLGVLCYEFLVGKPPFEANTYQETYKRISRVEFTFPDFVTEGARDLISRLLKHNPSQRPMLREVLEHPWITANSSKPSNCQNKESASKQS

[2] = target: panel of 255 wild-type kinases (Homo sapiens, UniProt P11802); conditions: CDK4/CycD3 kinase assay; 1 µmol/L single concentration; read-out: %-inhibition CDK4/CycD3
[3] = target: panel of 255 wild-type kinases (Homo sapiens, UniProt P42685); conditions: kinase FRK; 1 µmol/L single concentration; read-out: %-inhibition at 1 µmol/L, FRK
[4] = target: panel of 255 wild-type kinases (Homo sapiens, UniProt P54764); conditions: kinase EPHA4; 1 µmol/L single concentration; read-out: %-inhibition at 1 µmol/L, EPHA4
[5] = target: panel of 255 wild-type kinases (Homo sapiens, UniProt P78362); conditions: kinase SRPK2; 1 µmol/L single concentration; read-out: %-inhibition at 1 µmol/L, SRPK2
[6] = target: T2, panel of 255 wild-type kinases (Homo sapiens, UniProt Q06418); conditions: kinase TYRO3; 1 µmol/L single concentration; read-out: %-inhibition at 1 µmol/L, TYRO3
T2 sequence (Q06418 41-890): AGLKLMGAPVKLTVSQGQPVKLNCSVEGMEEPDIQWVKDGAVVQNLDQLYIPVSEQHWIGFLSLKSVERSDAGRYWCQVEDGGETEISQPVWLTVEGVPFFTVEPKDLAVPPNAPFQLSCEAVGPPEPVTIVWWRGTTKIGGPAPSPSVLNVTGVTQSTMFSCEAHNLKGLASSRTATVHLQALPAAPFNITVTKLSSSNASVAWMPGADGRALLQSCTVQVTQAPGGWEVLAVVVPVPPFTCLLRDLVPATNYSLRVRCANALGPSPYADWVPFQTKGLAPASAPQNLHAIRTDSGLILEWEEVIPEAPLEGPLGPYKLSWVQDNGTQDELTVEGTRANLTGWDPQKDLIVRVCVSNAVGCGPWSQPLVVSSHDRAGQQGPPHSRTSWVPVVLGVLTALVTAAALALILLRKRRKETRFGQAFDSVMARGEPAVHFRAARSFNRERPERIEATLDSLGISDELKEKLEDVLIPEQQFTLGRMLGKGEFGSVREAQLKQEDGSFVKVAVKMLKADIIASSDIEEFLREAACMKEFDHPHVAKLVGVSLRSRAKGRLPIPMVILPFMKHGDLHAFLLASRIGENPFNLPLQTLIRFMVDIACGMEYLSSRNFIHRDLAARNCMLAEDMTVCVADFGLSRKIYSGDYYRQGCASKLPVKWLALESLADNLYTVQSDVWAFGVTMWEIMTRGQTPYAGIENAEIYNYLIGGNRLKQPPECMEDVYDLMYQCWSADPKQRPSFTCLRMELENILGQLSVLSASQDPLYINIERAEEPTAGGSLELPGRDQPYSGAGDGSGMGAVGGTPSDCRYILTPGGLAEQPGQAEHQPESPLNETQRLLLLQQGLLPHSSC

[7] = target: panel of 255 wild-type kinases (Homo sapiens, UniProt Q14680); conditions: MELK; 1 µmol/L single concentration; read-out: %-inhibition, MELK
[8] = target: T3, panel of 255 wild-type kinases (Homo sapiens, UniProt Q9NWZ3); conditions: kinase IRAK4; 1 µmol/L single concentration; read-out: %-inhibition at 1 µmol/L, IRAK4
T3 sequence (Q9NWZ3 1-460): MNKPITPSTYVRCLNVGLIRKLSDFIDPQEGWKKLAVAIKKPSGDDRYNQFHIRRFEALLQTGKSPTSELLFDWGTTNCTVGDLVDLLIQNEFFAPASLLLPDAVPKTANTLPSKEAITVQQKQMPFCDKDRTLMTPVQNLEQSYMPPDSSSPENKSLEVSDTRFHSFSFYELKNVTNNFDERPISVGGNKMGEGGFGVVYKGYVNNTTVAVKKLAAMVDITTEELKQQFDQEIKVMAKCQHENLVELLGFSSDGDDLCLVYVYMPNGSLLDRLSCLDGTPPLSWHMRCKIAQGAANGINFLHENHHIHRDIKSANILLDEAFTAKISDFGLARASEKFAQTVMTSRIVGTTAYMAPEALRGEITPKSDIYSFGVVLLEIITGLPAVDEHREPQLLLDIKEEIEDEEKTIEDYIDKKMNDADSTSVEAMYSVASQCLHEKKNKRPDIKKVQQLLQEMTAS

[9] = target: panel of 255 wild-type kinases (Homo sapiens, UniProt Q9Y243); conditions: AKT3 kinase assay; 1 µmol/L single concentration; read-out: %-inhibition AKT3
[10] = AurA kinase assay, read-out: %-inhibition AurA
[11] = AurA/TPX2 kinase assay, read-out: %-inhibition AurA/TPX2

Structure (SMILES)	inhibition at 1 µM [1, 10]	inhibition at 1 µM [1, 11]	inhibition at 1 µM [2]	inhibition at 1 µM [3]	inhibition at 1 µM [4]	inhibition at 1 µM [5]	inhibition at 1 µM [6]	inhibition at 1 µM [7]	inhibition at 1 µM [8]	inhibition at 1 µM [9]
C=CC(=O)N1CCC([C@@H]2CCNc3c(C(N)=O)c(-c4ccc(Oc5ccccc5)cc4)nn32)CC1 [zanubrutinib]	-1.42%	-0.885%	-1.7%	82%	-0.204%	-2.35%	5.5%	-0.631%	1%	-3%
COC(=O)N[C@@H](C)CNc1nccc(-c2cn(C(C)C)nc2-c2cc(Cl)cc(NS(C)(=O)=O)c2F)n1 [encorafenib]	0.211%	-3.31%	10%	8%	10%	2%	8%	4.48%	-1.14%	-0.872%
CCc1nc(C(N)=O)c(Nc2ccc(N3CCC(N4CCN(C)CC4)CC3)c(OC)c2)nc1NC1CCOCC1 [gilteritinib]	80%	71%	46%	95%	36%	12%	93%	75%	79%	-4.56%
COc1cc2ncnc(Nc3ccc(F)c(Cl)c3)c2cc1NC(=O)/C=C/CN1CCCCC1 [dacomitinib]	-1.72%	1%	-0.81%	70%	38%	0.863%	27%	15%	19%	-5%
Cn1cc(-c2cc3c(N4CCN(c5ncc([C@@](C)(N)c6ccc(F)cc6)cn5)CC4)ncnn3c2)cn1 [avapritinib]	4.62%	10%	9%	25%	35%	-0.951%	72%	9%	12%	-5%
CCn1c(=O)c(-c2cc(NC(=O)Nc3ccccc3)c(F)cc2Br)cc2cnc(NC)cc21 [ripretinib]	-2%	-0.807%	-1.19%	87%	101%	-2.82%	9.48%	30%	-3.46%	-6.42%
